Test results taken from ChEMBL document CHEMBL5331070, “Design, synthesis and evaluation of N3-substituted quinazolinone derivatives as potential Bloom's Syndrome protein (BLM) helicase inhibitor for sensitization treatment of colorectal cancer” (Eur J Med Chem, 2023).
pIC50: −log10 of the molar value. The source made the active and inactive calls. The calls are words filed in the database; no cut-off is given here.

Columns and labels:
[1] = target: T1, RecQ-like DNA helicase BLM (Homo sapiens, UniProt P54132); test: Inhibition of His-tagged BLM (unknown origin) expressed in Escherichia coli BL21 (DE3) using 5'-biotin-labeled duplex forked-DNA as substrate incubated for 10 mins followed by substrate addition measured after 30 mins in presence of ATP by electrophoretic mobility shift assay
[2] = target: T1, RecQ-like DNA helicase BLM; test: Displacement of thiazole orange from His-tagged BLM (unknown origin) expressed in Escherichia coli BL21 (DE3) assessed as decrease in fluorescence intensity at 10 uM by fluorescence based analysis
[3] = target: T1, RecQ-like DNA helicase BLM; test: Displacement of thiazole orange from His-tagged BLM (unknown origin) expressed in Escherichia coli BL21 (DE3) assessed as decrease in fluorescence intensity by fluorescence based analysis
SW480 [4] = test: Inhibition of colony formation in human SW480 cells incubated for 10 days by crystal violet staining based assay; type: functional, cell-based; conditions: SW480, 240 h
[5] = Disruption of BLM/5'-biotin-labeled duplex forked-DNA interaction incubated for 30 mins by ELISA assay
HCT-116 [6] = test: Cytotoxicity against human HCT-116 cells assessed as inhibition of cell growth measured after 48 hrs by MTT assay; type: functional, cell-based; conditions: HCT-116, 48 h
SW480 [7] = test: Cytotoxicity against human SW480 cells assessed as inhibition of cell growth measured after 48 hrs by MTT assay; type: functional, cell-based; conditions: SW480, 48 h
RKO [8] = test: Cytotoxicity against human RKO cells assessed as inhibition of cell growth measured after 48 hrs by MTT assay; type: functional, cell-based
[9] = Cytotoxicity against human NCM460 cells assessed as inhibition of cell growth measured after 48 hrs by MTT assay; type: toxicity, cell-based
[10] = target: T1, RecQ-like DNA helicase BLM; test: Inhibition of BLM (unknown origin) assessed as ATP hydrolysis using 5'-biotin-labeled duplex forked-DNA as substrate incubated for 10 mins in presence of ATP by luciferase assay
HCT-116 [11] = test: Antiproliferative activity against wild type human HCT-116 cells assessed as inhibition of cell growth incubated for 48 hrs by propidium iodide staining based high-content imaging analysis; type: functional; conditions: HCT-116, 48 h
[12] = target: T1, RecQ-like DNA helicase BLM; test: Inhibition of BLM in human HCT-116 cells co-transfected with I-SceI assessed as effect on HRR level by measuring GFP expression at 1 to 3 uM incubated for 48 hrs by propidium iodide staining based high-content imaging analysis; type: cell-based; conditions: dose 1-3 µM
[13] = target: T1, RecQ-like DNA helicase BLM; test: Inhibition of BLM in human HCT-116 cells co-transfected with DR-GFP and I-SceI plasmid assessed as decease in recruitment of BLM to DSB site at 1 to 2 uM incubated for 48 hrs by qPCR analysis; type: cell-based; conditions: dose 1-2 µM
HCT-116 [14] = test: Induction of DNA damage in human HCT-116 cells at 3 uM incubated for 48 hrs by DAPI staining based laser scanning confocal microscopic analysis; type: functional, cell-based
SW480 [15] = test: Induction of DNA damage in human SW480 cells at 3 uM incubated for 48 hrs by DAPI staining based laser scanning confocal microscopic analysis; type: functional, cell-based
RKO [16] = test: Induction of DNA damage in human RKO cells at 3 uM incubated for 48 hrs by DAPI staining based laser scanning confocal microscopic analysis; type: functional, cell-based
HCT-116 [17] = test: Induction of DNA damage in human HCT-116 cells assessed as increase in gamma-H2AX level at above 0.3 uM incubated for 48 hrs by Western blotting analysis; type: functional, cell-based
SW480 [18] = test: Induction of DNA damage in human SW480 cells assessed as increase in gamma-H2AX level at above 0.3 uM incubated for 48 hrs by Western blotting analysis; type: functional, cell-based
RKO [19] = test: Induction of DNA damage in human RKO cells assessed as increase in gamma-H2AX level at above 0.3 uM incubated for 48 hrs by Western blotting analysis; type: functional, cell-based
HCT-116 [20] = test: Induction of cell cycle arrest in human HCT-116 cells assessed as accumulation of cells at S phase at 4 uM measured after 48 hrs by propidium iodide staining based high-content screening method; type: functional
SW480 [21] = test: Induction of cell cycle arrest in human SW480 cells assessed as accumulation of cells at S phase at 4 uM measured after 48 hrs by propidium iodide staining based high-content screening method; type: functional
HCT-116 [22] = test: Induction of cell cycle arrest in human HCT-116 cells assessed as accumulation of cells at G2/M phase at 4 uM measured after 48 hrs by propidium iodide staining based high-content screening method; type: functional
SW480 [23] = test: Induction of cell cycle arrest in human SW480 cells assessed as accumulation of cells at G2/M phase at 4 uM measured after 48 hrs by propidium iodide staining based high-content screening method; type: functional
RKO [24] = test: Induction of cell cycle arrest in human RKO cells assessed as accumulation of cells at G2/M phase at 4 uM measured after 48 hrs by propidium iodide staining based high-content screening method; type: functional
HCT-116 [25] = test: Induction of apoptosis in human HCT-116 cells assessed as apoptotic cells at 1 uM measured after 48 hrs by Annexin V-FITC/PI staining based flow cytometry (reference value: 14%); type: functional
SW480 [26] = test: Induction of apoptosis in human SW480 cells assessed as apoptotic cells at 1 uM measured after 48 hrs by Annexin V-FITC/PI staining based flow cytometry (reference value: 16%); type: functional
HCT-116 [27] = test: Inhibition of colony formation in human HCT-116 cells incubated for 10 days by crystal violet staining based assay; type: functional, cell-based; conditions: HCT-116, 240 h
RKO [28] = test: Inhibition of colony formation in human RKO cells incubated for 10 days by crystal violet staining based assay; type: functional, cell-based; conditions: 240 h
HCT-116 [29] = test: Inhibition of cell invasion in human HCT-116 cells incubated for 48 hrs by crystal violet staining based transwell assay; type: functional; conditions: HCT-116, 48 h

T1 sequence (P54132 whole entry): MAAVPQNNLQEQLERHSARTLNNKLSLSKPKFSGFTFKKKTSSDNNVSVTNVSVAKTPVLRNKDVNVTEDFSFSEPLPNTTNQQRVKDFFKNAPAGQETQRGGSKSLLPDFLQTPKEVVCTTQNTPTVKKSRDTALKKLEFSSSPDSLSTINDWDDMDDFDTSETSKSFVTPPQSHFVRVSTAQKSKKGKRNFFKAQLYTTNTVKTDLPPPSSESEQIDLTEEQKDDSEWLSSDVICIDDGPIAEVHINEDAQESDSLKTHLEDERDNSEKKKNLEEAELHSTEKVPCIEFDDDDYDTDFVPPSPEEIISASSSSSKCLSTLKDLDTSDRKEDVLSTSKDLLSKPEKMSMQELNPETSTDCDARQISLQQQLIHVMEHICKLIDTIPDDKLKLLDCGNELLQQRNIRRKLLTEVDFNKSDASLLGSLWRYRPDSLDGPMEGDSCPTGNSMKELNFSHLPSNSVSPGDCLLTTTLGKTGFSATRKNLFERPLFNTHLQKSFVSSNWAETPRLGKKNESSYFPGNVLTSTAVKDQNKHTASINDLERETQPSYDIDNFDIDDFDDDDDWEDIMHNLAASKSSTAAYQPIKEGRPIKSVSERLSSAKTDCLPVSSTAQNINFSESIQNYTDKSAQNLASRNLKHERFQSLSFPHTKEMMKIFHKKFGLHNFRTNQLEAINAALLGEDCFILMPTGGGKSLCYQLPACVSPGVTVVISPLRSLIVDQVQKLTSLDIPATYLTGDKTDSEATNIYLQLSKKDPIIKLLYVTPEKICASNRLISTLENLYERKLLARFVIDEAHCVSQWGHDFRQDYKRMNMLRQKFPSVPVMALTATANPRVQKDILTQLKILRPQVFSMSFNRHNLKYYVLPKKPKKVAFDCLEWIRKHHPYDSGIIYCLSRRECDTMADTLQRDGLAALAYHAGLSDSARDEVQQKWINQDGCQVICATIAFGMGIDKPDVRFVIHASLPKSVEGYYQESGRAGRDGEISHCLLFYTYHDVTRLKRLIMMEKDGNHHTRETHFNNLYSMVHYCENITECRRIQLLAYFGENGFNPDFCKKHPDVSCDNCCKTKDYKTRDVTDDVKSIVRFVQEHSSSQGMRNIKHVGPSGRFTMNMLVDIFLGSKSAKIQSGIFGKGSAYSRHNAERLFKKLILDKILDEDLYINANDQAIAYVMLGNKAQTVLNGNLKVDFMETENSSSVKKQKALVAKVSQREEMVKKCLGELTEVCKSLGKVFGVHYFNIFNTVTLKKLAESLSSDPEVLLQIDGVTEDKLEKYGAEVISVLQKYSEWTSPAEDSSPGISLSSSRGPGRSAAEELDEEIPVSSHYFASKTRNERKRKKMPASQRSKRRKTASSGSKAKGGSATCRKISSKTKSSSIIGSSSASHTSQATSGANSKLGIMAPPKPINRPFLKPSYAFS

SMILES: CCCCCn1c(/C=C/c2ccc(C(C)C)cc2)nc2cc(NCCCN(CC)CC)c(F)cc2c1=O
- pIC50 [1]: 5.43
- Activity [2]: inactive

SMILES: CCN(CC)CCCNc1cc2nc(/C=C/c3ccc(C(C)C)cc3)n(Cc3ccc(OC)cc3)c(=O)c2cc1F
- pIC50 [1]: 5.30
- Activity [2]: inactive

SMILES: CCN(CC)CCCNc1cc2nc(/C=C/c3ccc(C(C)C)cc3)n(CCOC(C)=O)c(=O)c2cc1F
- pIC50 [3]: < 5.00
- pIC50 [1]: < 4.49

SMILES: CCN(CC)CCCNc1cc2nc(/C=C/c3ccc(C(C)C)cc3)n(Cc3ccccc3C(F)(F)F)c(=O)c2cc1F
- pIC50 [1]: 5.28
- Activity [2]: inactive

SMILES: CCN(CC)CCCNc1cc2nc(/C=C/c3ccc(C(C)C)cc3)n(Cc3ccccc3Cl)c(=O)c2cc1F
- pIC50 [1]: 5.01
- Activity [2]: inactive

SMILES: C=C(C)Cn1c(/C=C/c2ccc(C(C)C)cc2)nc2cc(NCCCN(CC)CC)c(F)cc2c1=O
- pIC50 [1]: 5.10
- Activity [2]: inactive

SMILES: CCN(CC)CCCNc1cc2nc(/C=C/c3ccc(C(C)C)cc3)n(CC3CCOCC3)c(=O)c2cc1F
- pIC50 [1]: < 4.49
- Activity [2]: inactive

SMILES: CCN(CC)CCCNc1cc2nc(/C=C/c3ccc(C(C)C)cc3)n(Cc3ccc(Br)cc3)c(=O)c2cc1F
- pIC50 (SW480 [4]): 6.22
- pIC50 [1]: 6.10
- pIC50 [5]: 5.64
- pIC50 (HCT-116 [6]): 5.55
- pIC50 (SW480 [7]): 5.66
- pIC50 (RKO [8]): 5.27
- IC50 at 48 h [9]: 15.6 µM
- Activity [2]: inactive
- pIC50 [10]: < 4.49
- pIC50 (HCT-116 [11]): 5.72
- inhibition [12]: Active
- inhibition [13]: Active
- Activity (HCT-116 [14]): Active
- Activity (SW480 [15]): Active
- Activity (RKO [16]): Active
- Activity (HCT-116 [17]): Active
- Activity (SW480 [18]): Active
- Activity (RKO [19]): Active
- Activity (HCT-116 [20]): 54%
- Activity (SW480 [21]): 58%
- Activity (HCT-116 [22]): 20%
- Activity (SW480 [23]): 19%
- Activity (RKO [24]): 25%
- Activity (HCT-116 [25]): 35%
- Activity (SW480 [26]): 68%
- pIC50 (HCT-116 [27]): 6.22
- pIC50 (RKO [28]): 6.15
- pIC50 (HCT-116 [29]): 6.00

SMILES: CCN(CC)CCCNc1cc2nc(/C=C/c3ccc(C(C)C)cc3)n(CCCO)c(=O)c2cc1F
- pIC50 [1]: 4.49
- Activity [2]: inactive

SMILES: CCN(CC)CCCNc1cc2nc(/C=C/c3ccc(C(C)C)cc3)n(CCc3ccccc3)c(=O)c2cc1F
- pIC50 [3]: < 5.00
- pIC50 [1]: 5.40

SMILES: CCN(CC)CCCNc1cc2nc(/C=C/c3ccc(C(C)C)cc3)n(CCN(C)C)c(=O)c2cc1F
- pIC50 [3]: < 5.00
- pIC50 [1]: 5.60
- pIC50 [5]: 5.35
- pIC50 (HCT-116 [6]): 5.52
- pIC50 (SW480 [7]): 5.00
- pIC50 (RKO [8]): 4.97
- IC50 at 48 h [9]: > 25 µM
- pIC50 [10]: < 4.49

SMILES: CCN(CC)CCCNc1cc2nc(/C=C/c3ccc(C(C)C)cc3)n(CCCN3CCOCC3)c(=O)c2cc1F
- pIC50 [3]: < 5.00
- pIC50 [1]: < 4.49

SMILES: CCCn1c(/C=C/c2ccc(C(C)C)cc2)nc2cc(NCCCN(CC)CC)c(F)cc2c1=O
- pIC50 [3]: < 5.00
- pIC50 [1]: < 4.49

SMILES: CCN(CC)CCCNc1cc2nc(/C=C/c3ccc(C(C)C)cc3)n(CCCl)c(=O)c2cc1F
- pIC50 [3]: < 5.00
- pIC50 [1]: 5.29
- pIC50 [5]: 5.14
- pIC50 (HCT-116 [6]): 5.25
- pIC50 (SW480 [7]): 5.35
- pIC50 (RKO [8]): 5.25
- IC50 at 48 h [9]: 15 µM
- pIC50 [10]: < 4.49

SMILES: CCN(CC)CCCNc1cc2nc(/C=C/c3ccc(C(C)C)cc3)n(CC#N)c(=O)c2cc1F
- pIC50 [1]: 5.37
- Activity [2]: inactive

SMILES: CCN(CC)CCCNc1cc2nc(/C=C/c3ccc(C(C)C)cc3)n(CCC(C)C)c(=O)c2cc1F
- pIC50 [1]: 5.04
- Activity [2]: inactive

SMILES: CCN(CC)CCCNc1cc2nc(/C=C/c3ccc(C(C)C)cc3)n(CCCN(CC)CC)c(=O)c2cc1F
- pIC50 [1]: < 4.49
- Activity [2]: inactive

SMILES: CCN(CC)CCCNc1cc2nc(/C=C/c3ccc(C(C)C)cc3)n(Cc3ccccc3)c(=O)c2cc1F
- pIC50 [3]: < 5.00
- pIC50 [1]: 5.24

SMILES: CCN(CC)CCCNc1cc2nc(/C=C/c3ccc(C(C)C)cc3)n(Cc3ccccc3F)c(=O)c2cc1F
- pIC50 [1]: 5.28
- Activity [2]: inactive

SMILES: CCN(CC)CCCNc1cc2nc(/C=C/c3ccc(C(C)C)cc3)n(Cc3cccc(Br)c3)c(=O)c2cc1F
- pIC50 [1]: 5.64
- pIC50 [5]: 5.00
- pIC50 (HCT-116 [6]): 5.54
- pIC50 (SW480 [7]): 5.72
- pIC50 (RKO [8]): 5.24
- IC50 at 48 h [9]: 15.3 µM
- Activity [2]: inactive
- pIC50 [10]: < 4.49

SMILES: CCN(CC)CCCNc1cc2nc(/C=C/c3ccc(C(C)C)cc3)n(CCCOC(C)C)c(=O)c2cc1F
- pIC50 [3]: < 5.00
- pIC50 [1]: 5.28

SMILES: CCCCn1c(/C=C/c2ccc(C(C)C)cc2)nc2cc(NCCCN(CC)CC)c(F)cc2c1=O
- pIC50 [1]: 5.32
- Activity [2]: inactive

SMILES: CCN(CC)CCCNc1cc2nc(/C=C/c3ccc(C(C)C)cc3)n(Cc3ccccc3Br)c(=O)c2cc1F
- pIC50 [1]: 5.54
- Activity [2]: inactive

SMILES: CCN(CC)CCCNc1cc2nc(/C=C/c3ccc(C(C)C)cc3)n(CCC#N)c(=O)c2cc1F
- pIC50 [3]: < 5.00
- pIC50 [1]: < 4.49

SMILES: CCN(CC)CCCNc1cc2nc(/C=C/c3ccc(C(C)C)cc3)n(CCCCl)c(=O)c2cc1F
- pIC50 [1]: 5.89
- pIC50 [5]: 5.31
- pIC50 (HCT-116 [6]): 5.28
- pIC50 (SW480 [7]): 5.46
- pIC50 (RKO [8]): 4.91
- IC50 at 48 h [9]: 9.6 µM
- Activity [2]: inactive
- pIC50 [10]: < 4.49

SMILES: CCN(CC)CCCNc1cc2nc(/C=C/c3ccc(C(C)C)cc3)n(CC3CC3)c(=O)c2cc1F
- pIC50 [1]: 5.08
- Activity [2]: inactive
